Earlier results on eleven molecules are cited in patent US8389009B2, “Spatial control of signal transduction” (Wisconsin Alumni Research Foundation, priority 2005, dated 2013).

Where two headings read alike, the source gives them in different places.

Data set [1] deals with T1, VEGF (Homo sapiens, UniProt P15692).
T1 sequence (P15692 27-191 isoform P15692-4): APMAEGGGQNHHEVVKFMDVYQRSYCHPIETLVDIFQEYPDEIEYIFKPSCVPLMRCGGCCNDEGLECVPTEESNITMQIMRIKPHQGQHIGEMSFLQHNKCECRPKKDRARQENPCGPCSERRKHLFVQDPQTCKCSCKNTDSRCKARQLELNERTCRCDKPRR
Conditions: handle for VEGF; literature value; read-out: Affinity (KD).

In data set [2] the target is T2, IGF-1 (Homo sapiens, UniProt P05019). Particulars: handle for IGF-1; literature value; read-out: Affinity (KD).
T2 sequence (P05019 49-118 limits assumed): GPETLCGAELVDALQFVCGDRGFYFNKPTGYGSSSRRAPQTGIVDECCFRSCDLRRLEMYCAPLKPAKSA
Data set [3] concerns the target T2, IGF-1. Particulars: natural receptor binding IGF-1, according to previous studies; read-out: affinity (dissociation constant KD).
Data set [4] has as its target T1, VEGF. Particulars: natural receptor binding VEGF, according to previous studies; read-out: affinity (dissociation constant KD).

With “AAGAAACGGAAGAAUUGGAGACACGCUCGU (chemistry not given here) [SEQ ID NO: 2]”, the Kd in the data set with VEGF [1] was 1 nM.

As to “GGAAGAAUUGGUCAUCGUCGUCUCCGCCUCCC (chemistry not given here) [SEQ ID NO: 4]”, in the data set with VEGF [1], the Kd is 100 nM.

Take “AGUUUUGGAAGAAUUGGAUGUUCCGAUCGU (chemistry not given here) [SEQ ID NO: 3]”: in the data set with VEGF [1], the dissociation constant Kd is 10 nM.

With HDCFASVEALRRCMY [SEQ ID NO: 9], at IGF-1 [2], the equilibrium dissociation constant (Kd) was 500 nM.

For VEPNCDIHVMWEWECFERL [SEQ ID NO: 5], the equilibrium dissociation constant (Kd) on VEGF [1] is 200 nM.

EELWCFDGPRAWVCGYVK [SEQ ID NO: 7]: the Kd at VEGF [1] is 10000 nM.

With “natural IGF-1 receptor: natural cell surface receptor that binds IGF-1”, the Kd with IGF-1 [3] is approximately 0.16 nM.

VTCAADALGFLYCWE [SEQ ID NO: 10]: the Kd on IGF-1 [2] was 2000 nM.

As for RNCFESVAALRRCMY [SEQ ID NO: 8], the dissociation constant Kd at IGF-1 [2] is 100 nM.

For AUGCAGUUUGAGAAGUCGCGGAU [SEQ ID NO: 1], in the data set with VEGF [1], the Kd is 0.01 nM.

B1: natural VEGF receptor 1: natural cell surface receptor that binds VEGF (protein, UniProt P17948 27-1338, looked up)
Vascular endothelial growth …: SKLKDPELSLKGTQHIMQAGQTLHLQCRGEAAHKWSLPEMVSKESERLSITKSACGRNGKQFCSTLTLNTAQANHTGFYSCKYLAVPTSKKKETESAIYIFISDTGRPFVEMYSEIPEIIHMTEGRELVIPCRVTSPNITVTLKKFPLDTLIPDGKRIIWDSRKGFIISNATYKEIGLLTCEATVNGHLYKTNYLTHRQTNTIIDVQISTPRPVKLLRGHTLVLNCTATTPLNTRVQMTWSYPDEKNKRASVRRRIDQSNSHANIFYSVLTIDKMQNKDKGLYTCRVRSGPSFKSVNTSVHIYDKAFITVKHRKQQVLETVAGKRSYRLSMKVKAFPSPEVVWLKDGLPATEKSARYLTRGYSLIIKDVTEEDAGNYTILLSIKQSNVFKNLTATLIVNVKPQIYEKAVSSFPDPALYPLGSRQILTCTAYGIPQPTIKWFWHPCNHNHSEARCDFCSNNEESFILDADSNMGNRIESITQRMAIIEGKNKMASTLVVADSRISGIYICIASNKVGTVGRNISFYITDVPNGFHVNLEKMPTEGEDLKLSCTVNKFLYRDVTWILLRTVNNRTMHYSISKQKMAITKEHSITLNLTIMNVSLQDSGTYACRARNVYTGEEILQKKEITIRDQEAPYLLRNLSDHTVAISSSTTLDCHANGVPEPQITWFKNNHKIQQEPGIILGPGSSTLFIERVTEEDEGVYHCKATNQKGSVESSAYLTVQGTSDKSNLELITLTCTCVAATLFWLLLTLFIRKMKRSSSEIKTDYLSIIMDPDEVPLDEQCERLPYDASKWEFARERLKLGKSLGRGAFGKVVQASAFGIKKSPTCRTVAVKMLKEGATASEYKALMTELKILTHIGHHLNVVNLLGACTKQGGPLMVIVEYCKYGNLSNYLKSKRDLFFLNKDAALHMEPKKEKMEPGLEQGKKPRLDSVTSSESFASSGFQEDKSLSDVEEEEDSDGFYKEPITMEDLISYSFQVARGMEFLSSRKCIHRDLAARNILLSENNVVKICDFGLARDIYKNPDYVRKGDTRLPLKWMAPESIFDKIYSTKSDVWSYGVLLWEIFSLGGSPYPGVQMDEDFCSRLREGMRMRAPEYSTPEIYQIMLDCWHRDPKERPRFAELVEKLGDLLQANVQQDGKDYIPINAILTGNSGFTYSTPAFSEDFFKESISAPKFNSGSSDDVRYVNAFKFMSLERIKTFEELLPNATSMFDDYQGDSSTLLASPMLKRFTWTDSKPKASLKIDLRVTSKSKESGLSDVSRPSFCHSSCGHVSEGKRRFTYDHAELERKIACCSPPPDYNSVVLYSTPPI
Regarding B1, the Kd in the data set with VEGF [4] is approximately 0.0075 nM.

Broadly, the Kd is a measure of binding affinity in units of concentration.
